Converted amounts (≈) assume the structure as drawn. Where only a bound is given, the exact number is not on record here.

Here are results for one compound from US20260209242A1, “CAMPTOTHECIN DERIVATIVE, PHARMACEUTICAL COMPOSITION, AND PREPARATION METHOD AND USE THEREFOR” (priority 2022, published 2026).

A short description of data set [1]: Pharmacokinetic test in SD rats. To be noted: male, Sprague-Dawley (SD), rat, in vivo, iv, 2 mg/kg. How it is done:
After a single intravenous injection (dose: 2 mpk) of the compounds 6-2, 11-2, 17-2, and Dxd into male SD rats (blood collection time points: 0.083 h, 0.25 h, 0.5 h, 1 h, 2 h, 4 h, 8 h, and 24 h after IV administration, totaling 8 blood collection time points), average pharmacokinetic parameters in the plasma are as shown in Table 5: […]

The next data set concerns the target T1, CYP1A2 (Homo sapiens, UniProt P05177).
T1 sequence (P05177 1-516): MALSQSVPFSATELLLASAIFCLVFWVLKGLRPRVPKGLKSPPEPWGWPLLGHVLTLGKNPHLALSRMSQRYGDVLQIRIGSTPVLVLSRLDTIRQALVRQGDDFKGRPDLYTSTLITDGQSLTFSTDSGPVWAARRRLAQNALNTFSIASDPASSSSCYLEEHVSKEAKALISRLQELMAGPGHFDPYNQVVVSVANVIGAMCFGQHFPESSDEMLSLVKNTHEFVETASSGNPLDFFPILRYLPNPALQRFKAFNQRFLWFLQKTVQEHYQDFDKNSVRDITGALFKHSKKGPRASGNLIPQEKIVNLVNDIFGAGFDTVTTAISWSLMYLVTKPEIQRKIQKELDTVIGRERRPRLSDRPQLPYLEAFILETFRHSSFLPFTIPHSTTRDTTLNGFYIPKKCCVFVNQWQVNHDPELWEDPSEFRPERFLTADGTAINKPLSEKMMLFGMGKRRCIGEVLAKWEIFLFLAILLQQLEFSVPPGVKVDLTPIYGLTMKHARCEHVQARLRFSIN
The experiment in a line: Inhibition on human hepatomicrosomes CYP1A2.

The nature of data set [2]: Kinetic solubility test in PBS 7.4. The data set is classed as physicochemical. Here is the method:
10 mM stock solutions of the test substances 6-2, 11-2, 17-2, Dxd, and the control drugs progesterone and diclofenac were prepared using DMSO respectively.
15 μL of 10 mM stock solution of each of the test substances was added to a corresponding position of a corresponding 96-well plate in a specified sequence. 485 μL of the PBS 7.4 was added to a corresponding vial on a sample plate. The experiment was run in duplicate. Each vial was additionally provided with a stirring rod and was plugged. Then, the sample plate was transferred in a thermostatic mixer, and oscillated at a revolving speed of 1,100 rpm at 25° C. for 2 h. 2 h later, the plug was removed, the stirring rod was attracted away with a large magnet, and then the sample was transferred from the sample plate to the filter plate. Negative pressure was generated using a vacuum pump to filter the sample. 5 μL of filtrate and 5 μL of blank DMSO were transferred to another sample plate, and then 490 μL of internal standard water (acetonitrile:water=1:1) containing the internal standard was added. Depending on peak shapes, a certain proportion of internal standard water may be used to dilute the sample diluent to obtain better peak shapes.
6 μL was transferred from the 10 mM DMSO stock solution plate to a blank plate, and was prepared into a 300 μM standard substance solution with addition of 194 μL of DMSO. 5 μL was transferred from the 300 μM standard substance solution plate to still another blank plate, and then 5 μL of blank buffer and 490 μL of the internal standard water containing the internal standard (acetonitrile:water=1:1) were added until a final concentration of the standard substance solution was 3 μM.
An injection plate was transferred on an injection tray of an autosampler to evaluate the sample by LC/MS analysis.
All calculations were performed using Microsoft Excel.
The sample filtrate was analyzed and quantified by qualitative and quantitative LC/MS of standard substance peaks at known concentrations. The calculation formula for the solubility values of the reference drugs and the test substances are as follows:
[Sample] is the compound concentration, DFSample refers to the sample dilution factor, [STD] is the standard substance concentration of the compound, AREAStd is the standard substance peak area of the compound, and AREASample is the peak area of the compound sample.

Another data set addresses CYP2D6 (Homo sapiens, UniProt P10635). The data set is described as follows: Inhibition on human hepatomicrosomes CYP2D6.
A short description of data set [3]: Stability of compounds in human plasma. The conditions noted are these: 5 μmol/L. In kind it is in vitro ADME.
The subject of a further data set is SK-BR-3. The experiment in a line: Inhibition of proliferation of cells SK-BR-3 (CelltiterGlo, 72 h). The data set is classed as cell-based. The conditions noted are these: Homo sapiens; SK-BR-3 cells, 72 h, CTG; read-out: IC50 (nM), antiproliferative activity on SK-BR-3. How it is done: • (1) Cell plating: first, tumor cells SK-BR-3 were cultured using a corresponding culture medium, trypsinized, centrifuged, resuspended for counting, adjusted to an appropriate concentration, and then plated on a 384-well plate. • (2) Co-incubation of the compounds and tumor cells: after the cells adhered to the wall, 100 nL of a diluted bioactive substance (test compound) was added to the cell culture plate using ECHO, the final concentration of DMSO in wells of the cell plate was 0.33%, and the incubation was performed in an incubator at 37° C. with 5% CO2 for 72 h. • (3) After the incubation was complete, 30 μL of a CTG reagent (CelltiterGlo kit) was added to each well. The culture was oscillated on a fast oscillator for 2 min, centrifuged at 1,000 rpm for 1 min, and kept away from light at room temperature for 30 min. The chemiluminescence signal value was read using an Envision instrument. • (4) Cell viability detection: IC50 was calculated using GraphPad Prism 8 software, and the IC50 of the compounds was obtained using the following nonlinear fitting formula (see Table 1):
[formula] • Y: inhibition rate; X: log value of compound concentration-,
[formula] • high-reading control wells: cells with addition of 100 nL DMSO; and • low-reading control wells: cell-free wells.

Chain of CYP2D6 (P10635 whole entry): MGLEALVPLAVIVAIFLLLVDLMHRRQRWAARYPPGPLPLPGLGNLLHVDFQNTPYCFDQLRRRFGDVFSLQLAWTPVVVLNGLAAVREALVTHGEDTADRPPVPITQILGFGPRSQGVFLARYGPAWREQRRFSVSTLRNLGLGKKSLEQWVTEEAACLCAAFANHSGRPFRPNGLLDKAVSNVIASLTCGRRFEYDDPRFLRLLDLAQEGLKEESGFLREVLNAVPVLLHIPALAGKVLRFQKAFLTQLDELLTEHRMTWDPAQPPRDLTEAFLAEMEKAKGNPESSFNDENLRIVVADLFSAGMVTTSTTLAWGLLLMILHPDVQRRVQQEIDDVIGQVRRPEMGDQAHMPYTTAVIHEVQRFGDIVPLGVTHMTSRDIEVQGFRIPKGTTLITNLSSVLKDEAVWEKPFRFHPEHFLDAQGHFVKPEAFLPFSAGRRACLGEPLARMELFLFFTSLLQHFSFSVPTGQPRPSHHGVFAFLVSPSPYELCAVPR

In data set [1], `CC[C@@]1(O)C(=O)OCc2c1cc1n(c2=O)Cc2c-1nc1cc(F)c(C)c3c1c2[C@@H](NC(=O)[C@@H](O)C1CC1)CCC3` [Compound 11-2, (S)-2-cyclopropyl-N-((1S,10S)-10-ethyl-6-fluoro-10-hydroxy-5-methyl-11,14-dioxo-1,2,3,4,10,11,14,16-octahydro-13H-cyclohepta[de]pyrano[3′,4′:6,7]indolizino[1,2-b]quinolin-1-yl)-2-hydroxyacetamide] yielded an AUC(0-inf) of 465 ng·h/mL, an AUC(0-t) of 460 ng·h/mL, a C0 of 848 ng/mL and a Vd of 3.01 L/kg. In data set [1], this compound had a clearance of 72.7 mL/min/kg and a half-life of 37.8 min. In addition, the IC50 at CYP1A2 was above 30 µM. The “solubility in the PBS 7.4 compared with Dxd (in words)” value in data set [2] is “significantly better solubility in the PBS 7.4 than Dxd”. Besides, in data set [2] (25 °C, pH 7.4, aqueous buffer, kinetic from dmso stock), the solubility at 2 h turned out to be 34 µM (≈ 18.6 µg/mL). The compound also yielded a half-maximal inhibitory concentration (IC50) against CYP2D6 above 30 µM. In data set [3], the “Residual percentage (%) 4 h” value turned out to be 93.40%. Also, the half-maximal inhibitory concentration (IC50) in the data set on SK-BR-3 stood at 2.4 nM.
